Earlier results, collected in patent US12371405B1, “Isoindol-sulfilimine compound and use as a sigma-2 receptor inhibitor thereof” (SHANGHAI UNIVERSITY OF MEDICINE AND HEALTH SCIENCES, priority 2024, dated 2025).

What was measured:
[1] = tested on: cerebrospinal fluid β-amyloid (aβ); conditions: at 1 h after administration; cited from earlier work
sigma-2 receptor = sigma-2 receptor (Homo sapiens, UniProt Q5BJF2); conditions: cited from earlier work
[2] = cited from earlier work

Chain of sigma-2 receptor (Q5BJF2 whole entry, species assumed): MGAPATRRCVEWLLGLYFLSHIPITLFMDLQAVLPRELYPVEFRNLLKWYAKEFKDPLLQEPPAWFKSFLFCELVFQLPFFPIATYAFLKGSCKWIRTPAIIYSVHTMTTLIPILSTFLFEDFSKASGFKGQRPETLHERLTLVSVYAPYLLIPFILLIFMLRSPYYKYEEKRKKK

CC(C)(C)Oc1cc(CCC(C)(C)N2Cc3ccc(S(C)(=O)=O)cc3C2)ccc1O [CT1812]
concentration of cerebrospinal fluid β-amyloid (aβ) [1]: increase
sigma-1 and sigma-2 receptor selectivity (sigma-2 receptor): poor
oral bioavailability [2]: poor
